Results as given in patent US12703693B2, “Crystalline forms of N-{3-[(1S)-1-{[6-(3,4-dimethoxyphenyl)pyrazin-2-yl]amino}ethyl]phenyl}-5-methylpyridine-3-carboxamide and related products and methods” (GB002, INC., priority 2021, dated 2026).
Values after ≈ are worked out from the molar mass of the structure shown.

Experiments:
[1] = Solvent solubility of amorphous Compound 1 (solvent aliquot addition); format: physicochemical; conditions: thermodynamic from solid
Method: Test solvent/solvent system (50 μL) was added to the vial and the mixture assessed for dissolution. If no dissolution was apparent, the mixture was heated to ca. 40° C. and reassessed; if dissolution was still incomplete, the cycle was repeated and an additional 50 μL of solvent added. After 300 μL of solvent had been added, 100 μL aliquots were added. This procedure was continued until complete dissolution was observed or until 1 mL of solvent had been added.

[2] = Fragility and relaxation time (Tg vs heating rate by DSC); format: physicochemical; conditions: 25° C.; calculated from fragility parameters (γ=0.9, τ0=10^−14 s)
Method: Fragility and relaxation time parameters were determined by measuring Tg as a function of heating rate. Four heating rates were used: 1, 5, 10 and 20° C./min. DSC measurements were made by: • (1) heating at 10° C./min to 100° C.; • (2) isothermal hold for 5 min; • (3) cooling at 10° C./min to −20° C.; • (4) isothermal hold for 5 min; and • (5) heating at 10° C./min to 130° C.
The slope was used to calculate the activation enthalpy (ΔH*), from which the fragility parameters m, D and T0 were calculated, according to the following equations:
Using the fragility parameters, the initial structural relaxation time was calculated according to the following formula, (using γ=0.9 and τ0=10^−14 s) and determined to be 3 months at 25° C.

[3] = Solubility in ethyl acetate and ethyl acetate+2% water (Crystal16 parallel crystallizer); format: physicochemical; conditions: presence of water (2%)
Method: The solubility of crystalline Forms A and B of Compound 1 in ethyl acetate was determined using a Crystal16® parallel crystallizer. Two heating rates were used, 1° C./min and 0.5° C./min. The suspensions were heated to 78° C. and cooled to 10° C. at 0.2° C./min and maintained for 2 h at 10° C. […] The suspensions were heated to 78° C. at 1° C./min, cooled to 10° C. at 0.2° C./min and maintained for 2 h at 10° C. FIG. 15 compares the resulting solubility curve with the pure ethyl acetate.

[4] = Sample stress, 40° C. and 75% relative humidity, XRPD; format: physicochemical; conditions: open vial, 6 days
Method: Two samples, one containing pure crystalline Form A of Compound 1 and a second containing a mixture of crystalline Forms A and B of Compound 1 were placed in an open vial at 40° C. and 75% relative humidity for 6 days and then analyzed by XRPD. The results are presented in Table 11; no changes by XRPD were observed.

[5] = Gravimetric Vapor Sorption (GVS); format: physicochemical; conditions: 25° C.
Method: Approximately 10-20 mg of crystalline Form A of Compound 1 was placed into a mesh vapor sorption balance pan and loaded into an IGASorp Moisture Sorption Analyzer balance by Hiden Analytical. The sample was subjected to a ramping profile from 40-90% relative humidity (RH) at 10% increments, maintaining the sample at each step until a stable weight had been achieved (98% step completion, minimum step length 30 minutes, maximum step length 60 minutes) at 25° C. After completion of the sorption cycle, the sample was dried using the same procedure to 0% RH, and finally taken back to the starting point of 40% RH. Two cycles were performed. The weight change during the sorption/desorption cycles were plotted, allowing for the hygroscopic nature of the sample to be determined.

[6] = Physical stability, 1 week storage (HPLC purity, XRPD); format: physicochemical
Method: Two vials each were then stored for 1 week under various conditions of temperature and relative humidity.
XRPD analysis was performed to detect changes in crystallinity.

[7] = Particle size distribution (PSD) of micronized / spray dried material; format: physicochemical; conditions: Example 9 wet milling, 5% w/w in water, 45 cycles/P = 50 bar
Description: Crystalline Compound 1 Form A was fed into a grinding chamber tangentially by vacuum created by the venturi system using pressurized nitrogen (venturi pressure, Pvent, above grind pressure, Pgrind). Compressed nitrogen was also used for the jet nozzles in the walls of the chamber. The feed flow rate was set and controlled automatically (by a gravimetric feeder) or manually. Once inside the milling chamber particles were accelerated by a series of perimeter jets, in a spiral movement. The compressed fluid issuing from the nozzles expands from Pgrind and imparts very high rotational speeds in the chamber. The micronizing effect occurs when the slower incoming particles and the faster particles in the spiral path collide. While centrifugal force retains the larger particles at the periphery of the milling chamber, the smaller particles exit with the exhaust gas from the center of the chamber. Five 20 g trials were performed in a 1.5″ jet mill, under varying feed rates (Ffeed,JM,) and pressures; the optimal conditions were used for a sixth larger scale 50 g trial.
Aqueous suspensions of crystalline Compound 1 Form A in water (5% w/w or 10% w/w) were processed via microfluidization with a HPH18 (M-110EH-30 Microfluidics Pilot) wet milling apparatus equipped with an auxiliary processing module (200 μm) and an interaction chamber (Z-shape, 100 μm). The unit was initiated at a given pressure for the first five cycles to perform a pre-milling of the suspension, using only the auxiliary processing module (200 μm). The interaction chamber (100 μm) was then introduced and the suspension processed at a defined pressure. The temperature was controlled, using a reactor jacket, and recorded. To address clogging of the micronization chambers (observed after ~25 cycles), the pressure was increased from 25 to 60 bar.
The material isolated from the first run 1A, was dived into three (1BI, 1BII and 1BIII); runs 2A and 3A were spray dried to produce samples 2B and 3B, respectively. […] Runs 2B and 3B were additionally characterized for specific surface area (SSA). See Table 27 (runs 1BI, 1BII and 1BIII) and Table 28 (runs 2B and 3B) for conditions and product characterization. […]
Two 250 g batches of crystalline Compound 1 Form A were each suspended in water (5 L) and wet polished in a wet milling HPH18 (M-110EH-30 Microfluidics Pilot) apparatus, equipped with an auxiliary processing module (200 μm) and an interaction chamber (Z-shape, 100 μm). The unit was initiated at 50 bar for the first five cycles to perform a pre-milling of the suspension, using only the auxiliary processing module (200 μm). The interaction chamber (100 μm) was then introduced and the suspension processed at 50 bar (increased to 60 or 70 bar if the system clogged). The temperature was maintained at 18-28° C. using a reactor jacket. The Reactor agitation speed was 280 RPM (batch 1) and 390 RPM (batch 2). The first batch was micronized for 25 cycles and particle size distribution analyzed after 5, 15 and 20 cycles; the second batch was micronized for […] and particle size distribution analyzed after 15, 20, 25 and 35 cycles.
Both batches were then spray dried (separately) using a Büchi spray dryer, using an open loop system. The unit was equipped with a two-fluid nozzle: cap and orifice diameters of 1.5 and 0.7 mm, respectively operated with nitrogen. The aspirator, blowing nitrogen, was set at 100% capacity (~40 kg/h). The suspension feed flow was set to 8 ml/min, high and the drying outlet temperature to 75±1° C. […] Total yield (both batches combined) was 267 g (53%).
Two 250 g batches (250 g and 238 g; 488 g total) of crystalline Compound 1 Form A coated with ~2% L-leucine were each suspended in water (5 L) and wet polished in a wet milling HPH18 (M-110EH-30 Microfluidics Pilot) apparatus, under the same process as described in the previous example. The first batch was micronized for 25 cycles and the second for 30 cycles. […]

physchem = conditions: 22 °C, aqueous with cosolvent or surfactant or cyclodextrin, thermodynamic from solid
Method: (§1) Phosphate Buffer contained NaH2PO4·H2O (0.345 g), sodium hydroxide aqueous solution (0.2M, 10.001 mL), sodium chloride (0.576 g) and water (qs ad 100.0 mL); • Ethanol/Water (30/70) contained Ethanol (30.0 g) and Water (70.0 g); • Ethanol/Water (40/60) contained Ethanol (40.0 g) and Water (60.0 g); • Ethanol/Water (50/50) contained Ethanol (50.0 g) and Water (50.0 g); and • Ethanol/Water (45/55) contained Ethanol (4.50 g) and Water (5.51 g).

[8] = Solubility in 25 mM phosphate buffer pH 7.4; conditions: phosphate buffer, pH 7.4
Method: as §1

[9] = Thermodynamic solubility in pH 3, 4.5, 6.8 buffers and deionized water; conditions: for pH (24 h): ~24 h agitation at ambient temperature

For `COc1ccc(-c2cncc(N[C@@H](C)c3cccc(NC(=O)c4cncc(C)c4)c3)n2)cc1OC` [Amorphous Compound 1, N-{3-[(1S)-1-{[6-(3,4-dimethoxyphenyl)pyrazin-2-yl]amino}ethyl]phenyl}-5-methylpyridine-3-carboxamide], the solubility ([1]; 2-propanol, organic solvent or mixture) was at least 200 mg/mL, the solubility ([1]; EtOAc/tBME (75:25% v/v), organic solvent or mixture) was at least 200 mg/mL and the solubility ([1]; acetone, organic solvent or mixture) was at least 200 mg/mL. It also gave a solubility ([1]; acetonitrile, organic solvent or mixture) of at least 200 mg/mL, a solubility ([1]; chloroform, organic solvent or mixture) of at least 200 mg/mL and a solubility ([1]; ethanol, organic solvent or mixture) of at least 200 mg/mL. The solubility ([1]; ethanol/water (95:5% v/v), organic solvent or mixture) was at least 200 mg/mL, the solubility ([1]; ethyl acetate, organic solvent or mixture) was at least 200 mg/mL and the solubility ([1]; heptane, organic solvent or mixture) was under 10 mg/mL. It also gave a solubility ([1]; methanol, organic solvent or mixture) of at least 200 mg/mL, a solubility ([1]; methyl ethyl ketone, organic solvent or mixture) of at least 200 mg/mL and a solubility ([1]; organic solvent or mixture, EtOAc/tBME (25:75% v/v), sample heated to 40° C.) of about 12.5 mg/mL (≈ 26.6 mM). For the same molecule, the solubility ([1]; organic solvent or mixture, EtOAc/tBME (50:50% v/v), sample heated to 40° C.) was about 100 mg/mL (≈ 213 mM), the solubility ([1]; tert-butyl methyl ether, organic solvent or mixture) was under 10 mg/mL and the solubility ([1]; tetrahydrofuran, organic solvent or mixture) was at least 200 mg/mL. The solubility ([1]; toluene, organic solvent or mixture) was under 10 mg/mL, the solubility ([1]; water) was under 10 mg/mL and the “initial structural relaxation time” value [2] was 3 months.
With `COc1ccc(-c2cncc(N[C@@H](C)c3cccc(NC(=O)c4cncc(C)c4)c3)n2)cc1OC` [Form A, N-{3-[(1S)-1-{[6-(3,4-dimethoxyphenyl)pyrazin-2-yl]amino}ethyl]phenyl}-5-methylpyridine-3-carboxamide] the “solubility in ethyl acetate+2% water compared to pure ethyl acetate” value [3] was “significantly more soluble”, the “XRPD observation after stress conditions” value [4] was “No change - all Form A” and the “hygroscopic nature (GVS)” value ([5]; two sorption/desorption cycles) was “slightly hygroscopic”. The GVS mass increase ([5]; up to 90% relative humidity) was about 0.7%, the “Purity (HPLC)” value ([6]; 1 week, 25° C./60% relative humidity (open vial)) was about 99.1% and the “Purity (HPLC)” value ([6]; 1 week, 40° C./75% relative humidity (open vial)) was about 99.1%. For the same molecule, the “Purity (HPLC)” value ([6]; 1 week, 80° C. (closed vial)) was about 99.0%, the “Purity (HPLC)” value ([6]; 1 week, Ambient light/temperature (closed vial)) was about 98.9% and the “Purity (HPLC)” value ([6]; Before storage) was about 99.3%. The “crystalline form by XRPD after storage” value ([6]; one week, ambient, 25° C., 40° C., 80° C., relative humidity ambient, 60%, 75%) was “maintained”, the Dv10 [7] was 0.1 μm and the Dv50 [7] was 1.0 μm. For the same molecule, the Dv90 [7] was 3.5 μm, the solubility (physchem) was 2 to 350 mg/mL (≈ 4.26 to 745 mM) and the “solubility in phosphate buffer” value [8] was “moderate solubility”. For the same molecule, the “pH (Initial)” value ([9]; Water, after addition) was 6.78, the “pH (24 h)” value ([9]; Water) was 6.73 and the “Compound 1 concentration in filtered mother liquors (HPLC)” value ([9]; all buffers (pH 3, 4.5, 6.8) and water, ambient temperature, ~24 h) was under 0.05 mg/mL. For the same molecule, the “pH (Initial)” value ([9]; pH 3 buffer, after buffer addition) was 2.96, the “pH (24 h)” value ([9]; pH 3 buffer) was 2.94 and the “pH (Initial)” value ([9]; pH 4.5 buffer, after buffer addition) was 4.55. For the same molecule, the “pH (24 h)” value ([9]; pH 4.5 buffer) was 4.55, the “pH (Initial)” value ([9]; pH 6.8 buffer, after buffer addition) was 6.83 and the “pH (24 h)” value ([9]; pH 6.8 buffer) was 6.79.
